{"source": "patent US10092657B2", "about": "“Opsonized β-glucan preparations and methods” (Biothera, Inc., priority 2011, dated 2018)", "key": {"human monocytes [1]": {"test_system": "human monocytes", "assay": "Binding of PGG β-glucan to human monocytes within PBMC (BfD IV staining, flow cytometry)", "assay_type": "cell-based", "protocol": "Enriched neutrophils or PBMC were resuspended at 1×10^6 cells/mL in RPMI 1640 supplemented with 10% serum. PGG β-glucan at hexose concentrations 100 μg/mL, 200 μg/mL, or 400 μg/mL were added to neutrophils or PBMC and incubated in a 37° C., 5% CO2 humidified incubator for two hours. After incubation, cells were washed twice with FACS buffer (HBSS supplemented with 1% FBS and 0.1% sodium azide) to remove any unbound β-glucan, and subsequently treated with Fc block (Miltenyi Biotec, Auburn, Calif.). […] Cells were then incubated with FITC-conjugated F(ab′)2 goat anti-mouse IgM for 30 minutes at 4° C. and washed once with cold FACS buffer before fixing with 1% paraformaldehyde. In early optimization experiments, neutrophils, monocytes, and T cells were identified by staining with fluorescently labeled anti-CD 15, anti-CD 14, or anti-CD3 Abs, respectively. Events were collected on a LSRII flow cytometer (BD Biosciences, San Jose, Calif.) and analysis was performed using FLOWJO (Tree Star, Ashland, Oreg.). […] Surface binding of DTAF-conjugated β-glucan was subsequently assessed by flow cytometric analysis. […] The experiments to determine binding of PGG β-glucan at 200 μg/mL to neutrophils or at 100 μg/mL to PBMC were performed as described above with the following changes. For determining serum dependency, PGG β-glucan was incubated with neutrophils or PBMC resuspended in RPMI 1640 containing 2%, 5%, or 10% autologous serum at 37° C. for two hours. For time-course experiments, PGG β-glucan at indicated concentrations was incubated with cells resuspended in 10% autologous serum at 37° C. for 10 minutes, 20 minutes, 60 minutes, or 120 minutes. For temperature dependency experiments, PGG β-glucan at indicated concentrations was incubated with cells resuspended in 10% autologous serum for two hours at 4° C., room temperature, or 37° C."}, "human neutrophils": {"test_system": "human neutrophils", "assay": "Binding of PGG β-glucan after serum pre-treatment, neutrophils", "assay_type": "cell-based", "conditions": "200 μg/mL; 10% HI serum; two hours at 37° C.", "protocol": "(§1) PGG β-glucan at concentration 60-80 mg/mL was incubated with human serum at 1:10 volume ratio for 30 minutes in a 37° C. water bath. The serum-pretreated PGG β-glucan was added to neutrophils at 200 μg/mL or to PBMC at 100 μg/mL resuspended in RPM1 containing either 10% regular autologous serum or 10% HI serum at indicated time and temperature of incubation. Binding was then determined as described previously.\n(§2) To determine the role of complement proteins in binding, experiments were performed as described above except for using serum containing 10% HI, compstatin-treated or methylamine (MA)-treated, EGTA- or EGTA+MgCl2 (MgEGTA)-treated, or factor D-blocked serum. Heat-inactivated (HI) serum was prepared by incubating serum in a 56° C. water bath for 30 minutes. […] Treatment of serum with methylamine (MA) was done by incubating serum with 0.67% of methylamine for 2.5 hours at 37° C., followed by three washes with DPBS using Amicon centrifugal filter unit with a 3K MW cut-off (Millipore, Billerica, Mass.). DPBS-treated serum was prepared in the same manner and used as control serum for MA-treated serum. For blocking of factor D in the serum, 166-32 at concentration 20 μg/mL was incubated with serum on ice for 30 minutes, and then used for binding studies. […]"}, "human monocytes [2]": {"test_system": "human monocytes", "assay": "Binding of PGG β-glucan after serum pre-treatment, monocytes", "assay_type": "cell-based", "conditions": "100 μg/mL; 10% HI serum; two hours at 37° C.", "protocol": "as §1, §2"}, "iC3b": {"target": "T1, iC3b (Homo sapiens, UniProt P01024)", "T1 construct": "from tissue", "T1 sequence (P01024 749-1303 limits assumed)": "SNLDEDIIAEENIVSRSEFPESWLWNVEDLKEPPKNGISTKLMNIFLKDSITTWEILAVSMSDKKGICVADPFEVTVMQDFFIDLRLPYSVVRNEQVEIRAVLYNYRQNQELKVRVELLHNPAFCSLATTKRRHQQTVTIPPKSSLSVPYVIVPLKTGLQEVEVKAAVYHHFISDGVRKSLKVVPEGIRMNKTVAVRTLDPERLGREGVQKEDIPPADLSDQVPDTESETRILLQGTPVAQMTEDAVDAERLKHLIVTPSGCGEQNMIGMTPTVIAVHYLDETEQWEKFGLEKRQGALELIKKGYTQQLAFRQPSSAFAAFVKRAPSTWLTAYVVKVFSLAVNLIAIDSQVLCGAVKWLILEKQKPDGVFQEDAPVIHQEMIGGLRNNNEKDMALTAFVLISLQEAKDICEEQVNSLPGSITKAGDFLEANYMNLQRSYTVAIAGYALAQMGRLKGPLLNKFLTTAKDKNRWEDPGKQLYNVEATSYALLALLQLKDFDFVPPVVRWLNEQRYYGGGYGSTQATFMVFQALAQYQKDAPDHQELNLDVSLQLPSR", "T1 sequence (P01024 23-667 partner limits assumed)": "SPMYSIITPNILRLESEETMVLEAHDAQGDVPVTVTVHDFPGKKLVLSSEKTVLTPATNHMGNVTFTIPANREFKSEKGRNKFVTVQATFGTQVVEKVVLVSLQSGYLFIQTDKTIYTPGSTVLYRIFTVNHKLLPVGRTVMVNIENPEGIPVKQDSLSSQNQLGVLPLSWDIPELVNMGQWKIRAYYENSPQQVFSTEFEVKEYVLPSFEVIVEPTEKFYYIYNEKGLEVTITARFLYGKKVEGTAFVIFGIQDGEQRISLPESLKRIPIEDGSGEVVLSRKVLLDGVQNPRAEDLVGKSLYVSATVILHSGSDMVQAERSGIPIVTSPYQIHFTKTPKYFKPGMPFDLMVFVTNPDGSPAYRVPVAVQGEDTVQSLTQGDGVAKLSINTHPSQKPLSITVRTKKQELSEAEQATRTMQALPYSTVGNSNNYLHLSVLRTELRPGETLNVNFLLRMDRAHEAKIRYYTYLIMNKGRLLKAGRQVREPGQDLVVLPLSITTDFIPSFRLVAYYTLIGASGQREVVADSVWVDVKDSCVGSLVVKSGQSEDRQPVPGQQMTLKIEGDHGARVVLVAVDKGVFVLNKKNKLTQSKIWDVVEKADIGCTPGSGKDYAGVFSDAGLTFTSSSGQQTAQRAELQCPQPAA", "T1 sequence (P01024 1321-1663 partner limits assumed)": "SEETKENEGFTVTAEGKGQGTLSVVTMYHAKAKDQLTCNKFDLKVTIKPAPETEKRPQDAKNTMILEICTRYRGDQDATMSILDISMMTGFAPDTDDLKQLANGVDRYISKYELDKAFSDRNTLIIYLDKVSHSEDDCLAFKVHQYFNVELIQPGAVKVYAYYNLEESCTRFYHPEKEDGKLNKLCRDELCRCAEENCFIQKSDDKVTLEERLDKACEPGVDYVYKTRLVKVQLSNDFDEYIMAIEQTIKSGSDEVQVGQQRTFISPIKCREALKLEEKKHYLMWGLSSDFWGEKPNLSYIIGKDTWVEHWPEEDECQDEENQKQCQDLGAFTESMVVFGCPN", "assay": "Immunoprecipitation of PGG β-glucan with BfD IV and detection of pulled-down iC3b", "assay_type": "binding", "protocol": "PGG β-glucan or dextran at concentration 60-80 mg/mL was incubated with regular or HI serum at 1:10 volume ratio for 30 minutes in a 37° C. water bath. BfD IV Ab was added to the serum/β-glucan mixture and incubated at room temperature for additional 30 minutes. Magnetic beads conjugated with rat anti-mouse IgM (DYNABEADS, Invitrogen, Camarillo, Calif.) were washed three times with DPBS and incubated with serum-PGG β-glucan-BfD IV mixture for another 30 minutes at room temperature. The beads were separated magnetically and iC3b pulled-down along with immunoprecipitated PGG was probed using FITC-conjugated complement C3 Ab by flow cytometer."}, "human monocytes [3]": {"test_system": "human monocytes", "assay": "iC3b staining on PGG β-glucan-bound monocytes (flow cytometry)", "assay_type": "cell-based", "conditions": "100 μg/mL; 10% serum; 37° C.; two hours", "text": "Binding of PGG β-glucan to neutrophils and PBMC was done as above. iC3b deposition on these cells was detected by staining with a neo-epitope specific anti-iC3b Ab and PE-conjugated goat anti-mouse IgG and analyzing by flow cytometry."}, "sC5b-9 complex": {"test_system": "sC5b-9 complex", "assay": "Measurement of fluid-phase SC5b-9 complex formation in the serum", "assay_type": "biochemical, human", "protocol": "The MicroVue SC5b-9 EIA kit was used to measure activation of the classical and alternative pathways of complement according to the vendor's instruction (Quidel Corp., San Diego, Calif.). Briefly, the serum, untreated or treated was mixed with PBS, Ab-sensitized sheep RBC (SRBC), or 20 units of CVF and added to plate wells pre-coated with anti-sC5b-9 monoclonal antibody. The plate was incubated at 37° C. for 60 minutes, followed by five washes with the provided wash buffer. The plate was then incubated with the provided SC5b-9 Plus Conjugate, which contained horseradish peroxidase-conjugated Ab specific for sC5b-9 at room temperature for 30 minutes. The plate was washed five times, incubated with the substrate for 15 minutes at room temperature to initiate the enzymatic reaction and subsequently quenched with the stop solution. OD450 Was measured using the spectrophotometer SpectraMAX 250. The concentration of fluid phase sC5b-9 present in the samples was determined from the standard curve generated with the provided sC5b-9 standards."}, "[4]": {"conditions": "2%, 5% or 10% autologous serum, 37° C., two hours"}}}
{"substance": "β(1,6)-[poly-1,3)-D-glucopyranosyl]-poly-β(1,3)-D-glucopyranose [PGG β-glucan]", "values": [{"measurement": "Minimum concentration of β-glucan detected on the cells by the BfD IV detection system", "setting": "human monocytes [1]", "value": 100, "unit": "µg/mL"}, {"measurement": "Incubation time of maximal binding", "setting": "human monocytes [1]; 100 μg/mL, 10% serum, 37° C.", "value": "60 to 120", "unit": "min"}, {"measurement": "Percentage of serum at which maximal binding occurred", "setting": "human monocytes [1]; [4]", "value": 10, "unit": "%"}, {"measurement": "Percentage of serum at which minimum binding occurred", "setting": "human monocytes [1]; [4]", "value": 2, "unit": "%"}, {"measurement": "Concentration at which percentage of BfD IV positive cells reached a plateau", "setting": "human monocytes [1]; 10% autologous serum, 37° C., two hours", "value": 200, "unit": "µg/mL"}, {"measurement": "Binding (MFI and percentage of BfD IV positive cells)", "setting": "human monocytes [1]; 100, 200, 400 μg/mL, 10% autologous serum, 37° C., two hours", "value": "bound to both neutrophils and monocytes"}, {"measurement": "Incubation temperature of maximal binding", "setting": "human monocytes [1]; two hours at 4° C., room temperature or 37° C., 10% serum", "value": 37, "unit": "°C"}, {"measurement": "Extent of rescued binding to cells in HI serum (MFI, percentage of BfD IV positive cells)", "setting": "human neutrophils", "value": "minimal"}, {"measurement": "Extent of rescued binding to cells in HI serum (MFI, percentage of BfD IV positive cells)", "setting": "human monocytes [2]", "value": "minimal"}, {"measurement": "iC3b pulled down with BfD IV immunoprecipitate", "setting": "iC3b; glucan incubated with HI serum", "value": "no iC3b was detected"}, {"measurement": "iC3b pulled down with BfD IV immunoprecipitate", "setting": "iC3b; glucan incubated with regular serum", "value": "iC3b protein was pulled-down"}, {"measurement": "iC3b staining on cells incubated with β-glucan vs serum alone", "setting": "human monocytes [3]", "value": "increased staining of iC3b"}, {"measurement": "Formation of terminal complement complexes (fluid phase MAC) in serum treated with the glucan", "setting": "sC5b-9 complex", "value": "did not activate formation of terminal complement complexes"}]}
